≈ marks a conversion by molar mass, not a printed value. Where “and” joins values, the source holds several entries; their conditions need not be identical. Identical values can stand only once. Residues, ends and D or L forms follow the SMILES beside them.
Key:
A. baumannii FADDI-AB030 = type: cell-based, Acinetobacter baumannii; conditions: FADDI-AB030
In short: (§1)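 MICs were determined by broth microdilution in cation-adjusted Mueller–Hinton broth (CaMHB), with clinical isolates tested alongside ATCC strains.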

A. baumannii ATCC 19606 = type: cell-based, Acinetobacter baumannii; conditions: ATCC 19606
In short: as §1

A. baumannii FADDI-AB034 = type: cell-based, Acinetobacter baumannii; conditions: FADDI-AB034
In short: as §1

P. aeruginosa ATCC 27853 [1] = test: Neutropenic mouse bloodstream infection model; type: in vivo; conditions: single IV dose 4 mg/kg; for Log10 CFU/mL blood at 4 h, Mean / Δlog10 CFU/mL blood (mean) / Log10 CFU/mL blood at 4 h, single mouse: 4 h; for Δlog10 CFU/mL blood (mean): treated minus control, mean of replicates; for Δlog10 CFU/mL blood (mean) / Log10 CFU/mL blood at 4 h, single mouse / Delta Log10 CFU/mL blood at 4 h, single mouse: 4 mg/kg; for Delta Log10 CFU/mL blood at 4 h, single mouse: treated mouse minus mean of vehicle mice
Description: The experimental methodology for the neutropenic mouse bloodstream infection model was described previously. Briefly, 7-week-old female Swiss mice (22–28 g) were rendered neutropenic by intraperitoneal administration of cyclophosphamide, 4 days (150 mg/kg) and 1 day (100 mg/kg) prior to inoculation. Bloodstream infection was established by intravenous administration of a 50 µL bolus of early log-phase bacterial suspension (4 × 10^8 CFU/mL). Lipopeptide solutions were prepared at 1 mg/mL (free base) in sterile saline. At 2 h after inoculation, mice (n = 3) were injected intravenously with lipopeptide solution at 4 mg/kg (free base) or saline control. At 0 and 4 h after administration, blood was collected, diluted serially in sterile saline, and plated on nutrient agar plates. Agar plates were incubated at 37 °C overnight for bacterial colony counting and the bacterial load in the blood (log10 CFU/mL) in each mouse was calculated. In vivo efficacy was calculated as the difference of the log10 CFU/mL blood values between the treated mice and the saline-treated mice at 4 h post dosing (Δlog10 CFU/mL blood = log10 [treated] CFU/mL blood − log10[control] CFU/mL blood).

[2] = system: P. aeruginosa FADDI-PA038; type: cell-based, Pseudomonas aeruginosa; conditions: FADDI-PA038
In short: as §1

[3] = system: P. aeruginosa FADDI-PA025; type: cell-based, Pseudomonas aeruginosa; conditions: FADDI-PA025
In short: as §1

P. aeruginosa ATCC 27853 [4] = type: cell-based, Pseudomonas aeruginosa
In short: as §1

Swiss mice, kidney = test: Nephrotoxicity in mice (kidney histopathology); type: in vivo, mouse; conditions: for Kidney histopathology (SQS Score): 72 mg/kg/d subcutaneously in six divided doses every 2 h, n = 3; for Kidney histopathology, mice with the SQS score: mouse, in vivo
In short: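 Female Swiss mice (7-week-old, 22–28 g) received lipopeptides in saline either s.c. at 12 mg/kg ×6 every 2 h (total 72 mg/kg, n = 3) or i.p. at 20 or 25 mg/kg ×6 every 2 h (total 120 mg/kg, n = 6; 150 mg/kg, n = 3). Right kidney collected 20 h after last dose, fixed in 10% buffered formalin (pH 7.4), histology scored blinded.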

[5] = system: K. pneumoniae FADDI-KP032; type: cell-based, Klebsiella pneumoniae; conditions: FADDI-KP032
In short: as §1

[6] = system: K. pneumoniae FADDI-KP065; type: cell-based, Klebsiella pneumoniae; conditions: FADDI-KP065
In short: as §1

Row | Compound | MIC A. baumannii FADDI-AB030 (A. baumannii FADDI-AB030) [µg/mL] | MIC A. baumannii ATCC 19606 (A. baumannii ATCC 19606) [µg/mL] | MIC A. baumannii FADDI-AB034 (A. baumannii FADDI-AB034) [µg/mL] | Log10 CFU/mL blood at 4 h, Mean (P. aeruginosa ATCC 27853 [1]) [Log10 CFU/mL blood] | Δlog10 CFU/mL blood (mean) (P. aeruginosa ATCC 27853 [1]) [log10 CFU/mL blood] | Log10 CFU/mL blood at 4 h, single mouse (P. aeruginosa ATCC 27853 [1]) | Delta Log10 CFU/mL blood at 4 h, single mouse (P. aeruginosa ATCC 27853 [1]) | MIC P. aeruginosa FADDI-PA038 [2] [µg/mL] | MIC P. aeruginosa FADDI-PA025 [3] [µg/mL] | MIC P. aeruginosa ATCC 27853 (P. aeruginosa ATCC 27853 [4]; ATCC 27853) [µg/mL] | Kidney histopathology (SQS Score) (Swiss mice, kidney) | Kidney histopathology, mice with the SQS score (Swiss mice, kidney) | MIC K. pneumoniae FADDI-KP032 [5] [µg/mL] | MIC K. pneumoniae FADDI-KP065 [6] [µg/mL] | impact of lung surfactant on MIC (P. aeruginosa ATCC 27853 [4]; 10% Survanta vs none) | MIC, No Survanta (P. aeruginosa ATCC 27853 [4]; ATCC 27853) [µg/mL]
1 | CC[C@@H]1NC(=O)[C@@H](CC(C)C)NC(=O)[C@H](CCN)NC(=O)[C@@H](NC(=O)[C@H](CN)NC(=O)[C@@H](NC(=O)[C@H](CCN)NC(=O)c2ccc(Cl)cc2F)[C@@H](C)O)CCNC(=O)[C@H]([C@@H](C)O)NC(=O)[C@H](CCN)NC(=O)[C@H](CCN)NC1=O [Lipopeptide F448] (HELM PEPTIDE1{[O=C(c1ccc(Cl)cc1F)[*:2]].[Dab].T.[NC[C@H](N[*:1])C(=O)[*:2]].[Dab].[Dab].[dL].[Abu].[Dab].[Dab].T}$PEPTIDE1,PEPTIDE1,5:R3-11:R2$$$V2.0) | 1 (≈ 0.874 µM) | 2 (≈ 1.75 µM) | 0.5 (≈ 0.437 µM) | 4.51 | −3.06 | 4.51 Log10 CFU/mL blood and 4.31 Log10 CFU/mL blood and 4.72 Log10 CFU/mL blood | -3.07 Log10 CFU/mL blood and -3.27 Log10 CFU/mL blood and -2.85 Log10 CFU/mL blood | 0.5 (≈ 0.437 µM) | 1 (≈ 0.874 µM) | 0.5 (≈ 0.437 µM) | 0 (SQS 0 = no significant change (overall score, <1)) | 3/3 | <0.125 | 0.25 (≈ 0.219 µM) |  | 
2 | CCCCCCCC(=O)N[C@@H](CCN)C(=O)N[C@H](C(=O)N[C@@H](CCCN)C(=O)N[C@H]1CCNC(=O)[C@H]([C@@H](C)O)NC(=O)[C@H](CCN)NC(=O)[C@H](CCN)NC(=O)[C@H]([C@@H](C)O)NC(=O)[C@@H](CC(C)C)NC(=O)[C@H](CCN)NC1=O)[C@@H](C)O [Lipopeptide F252] (HELM PEPTIDE1{[CCCCCCCC(=O)[*:2]].[Dab].T.[Orn].[Dab].[Dab].[dL].T.[Dab].[Dab].T}$PEPTIDE1,PEPTIDE1,5:R3-11:R2$$$V2.0) | 0.5 (≈ 0.432 µM) | 1 (≈ 0.864 µM) | 1 (≈ 0.864 µM) | 5.46 | −1.98 | 5.30 Log10 CFU/mL blood and 5.91 Log10 CFU/mL blood and 5.19 Log10 CFU/mL blood | -2.15 Log10 CFU/mL blood and -1.54 Log10 CFU/mL blood and -2.26 Log10 CFU/mL blood | 2 (≈ 1.73 µM) | >32 | 0.5 (≈ 0.432 µM) | +1 (SQS + 1 = mild damage (overall score, 1 to <15)) | 2/3 | <0.125 | 0.5 (≈ 0.432 µM) |  | 
3 | CCCCCCCC(=O)N[C@@H](CCN)C(=O)N[C@H](C(=O)N[C@@H](CCN)C(=O)N[C@H]1CCNC(=O)[C@H]([C@@H](C)O)NC(=O)[C@H](CCN)NC(=O)[C@H](CCN)NC(=O)[C@H](C(C)C)NC(=O)[C@@H](CC(C)C)NC(=O)[C@H](CCN)NC1=O)[C@@H](C)O [Lipopeptide F225] (HELM PEPTIDE1{[CCCCCCCC(=O)[*:2]].[Dab].T.[Dab].[Dab].[Dab].[dL].V.[Dab].[Dab].T}$PEPTIDE1,PEPTIDE1,5:R3-11:R2$$$V2.0) | 0.25 (≈ 0.219 µM) | 0.5 (≈ 0.438 µM) | 0.25 (≈ 0.219 µM) | 4.59 | −2.86 | 4.22 Log10 CFU/mL blood and 4.78 Log10 CFU/mL blood (2×) | -3.23 Log10 CFU/mL blood and -2.67 Log10 CFU/mL blood (2×) | 1 (≈ 0.876 µM) | 4 (≈ 3.5 µM) | 1 (≈ 0.876 µM) | 0 (SQS 0 = no significant change (overall score, <1)) | 3/3 | <0.125 | <0.125 |  | 
4 | CCCCCCCC(=O)N[C@@H](CCN)C(=O)N[C@H](C(=O)N[C@@H](CCN)C(=O)N[C@H]1CCNC(=O)[C@H]([C@@H](C)O)NC(=O)[C@H](CCN)NC(=O)[C@H](CCN)NC(=O)[C@H]([C@@H](C)O)NC(=O)[C@@H](CCCC)NC(=O)[C@H](CCN)NC1=O)[C@@H](C)O [Lipopeptide F226] (HELM PEPTIDE1{[CCCCCCCC(=O)[*:2]].[Dab].T.[Dab].[Dab].[Dab].[CCCC[C@@H](N[*:1])C(=O)[*:2]].T.[Dab].[Dab].T}$PEPTIDE1,PEPTIDE1,5:R3-11:R2$$$V2.0) | 0.5 (≈ 0.437 µM) | 2 (≈ 1.75 µM) | 1 (≈ 0.875 µM) | 4.20 | −3.24 | 4.01 Log10 CFU/mL blood and 4.55 Log10 CFU/mL blood and 4.05 Log10 CFU/mL blood | -3.43 Log10 CFU/mL blood and -2.90 Log10 CFU/mL blood and -3.40 Log10 CFU/mL blood | 1 (≈ 0.875 µM) | 16 (≈ 14 µM) | 1 (≈ 0.875 µM) | +1 (SQS + 1 = mild damage (overall score, 1 to <15)) | 1/3 | <0.125 | <0.125 |  | 
5 | CCCCCCCC(=O)N[C@@H](CCN)C(=O)N[C@H](C(=O)N[C@@H](CN)C(=O)N[C@H]1CCNC(=O)[C@H]([C@@H](C)O)NC(=O)[C@H](CCN)NC(=O)[C@H](CCN)NC(=O)[C@H]([C@@H](C)O)NC(=O)[C@@H](CC(C)C)NC(=O)[C@H](CCN)NC1=O)[C@@H](C)O [Lipopeptide F251] (HELM PEPTIDE1{[CCCCCCCC(=O)[*:2]].[Dab].T.[NC[C@H](N[*:1])C(=O)[*:2]].[Dab].[Dab].[dL].T.[Dab].[Dab].T}$PEPTIDE1,PEPTIDE1,5:R3-11:R2$$$V2.0) | 0.25 (≈ 0.221 µM) | 0.5 (≈ 0.443 µM) | 0.25 (≈ 0.221 µM) | 5.87 | −1.57 | 6.12 Log10 CFU/mL blood and 5.83 Log10 CFU/mL blood and 5.67 Log10 CFU/mL blood | -1.33 Log10 CFU/mL blood and -1.61 Log10 CFU/mL blood and -1.78 Log10 CFU/mL blood | 0.5 (≈ 0.443 µM) | 8 (≈ 7.08 µM) | 0.5 (≈ 0.443 µM) | 0 (SQS 0 = no significant change (overall score, <1)) | 3/3 | <0.125 | <0.125 | slightly impacted | 0.5 (≈ 0.443 µM)

Reference: article PMC8956739, “A synthetic lipopeptide targeting top-priority multidrug-resistant Gram-negative pathogens” (Nature Communications, 2022)
